# According to US12637479B2, “Low energy gap small molecule material and organic optoelectronic device using the same” (Raynergy Tek Incorporation, priority 2021, dated 2026):
# Experiments:
# Format in all cases: physicochemical
# [1] = UV-Vis-NIR absorption spectra in chloroform solution
# Description: (§1) Please refer to FIG. 2 to FIG. 4 and Table 1.
# (§2) The highest occupied molecular orbital (HOMO) is calculated from HOMO=−|4.71÷E^xo−E^ferroncene|eV. The optical energy gap
# [2] = UV-Vis-NIR absorption spectra in film, optical energy gap from absorption onset
# Description: as §1, §2
# [formula] of the material is known from the absorption onset position
# (§3) [formula] of the UV-Vis-NIR absorption spectrum in film state. The lowest unoccupied molecular orbital (LUMO) is calculated from LUMO=HOMO+Eg eV.
# [3] = Energy levels by cyclic voltammetry (HOMO, LUMO)
# Description: as §2, §3
# [4] = Solubility measurement in o-xylene; conditions: 8 mg sample in 1 mL o-xylene
# Description: Among them, “O” means complete dissolution, and “X” means incomplete dissolution. […] In the art, it is an industry trend to use non-halogenated green solvents. Green solvents generally come from renewable resources or can be degraded by soil organisms or other substances, have a short half-life, and are easily decayed into low-toxic and non-toxic substances. Therefore, green solvents are generally less harmful to biological health and the environment than general solvents that are easily chlorinated or highly toxic. Green solvents are also called environmentally friendly solvents. O-xylene is a non-halogen green solvent.
structure (smiles),measurement,setting,value
CCCCCCCCCCCCc1cc(-c2c3c(c(-c4cc(CCCCCCCCCCCC)c(-c5cc6c(s5)-c5sc(-c7sc(-c8c9c(c(-c%10cc(CCCCCCCCCCCC)c(/C=C%11\C(=O)c%12cc(F)c(F)cc%12C%11=C(C#N)C#N)s%10)c%10nn(CC(CC)CCCC)nc8%10)N=S=N9)cc7CCCCCCCCCCCC)cc5C6(c5cc(CCCCCC)cc(CCCCCC)c5)c5cc(CCCCCC)cc(CCCCCC)c5)s4)c4nn(CC(CC)CCCC)nc24)N=S=N3)sc1/C=C1\C(=O)c2cc(F)c(F)cc2C1=C(C#N)C#N (centres unmarked) [Q4],λsoln^max,[1]; chloroform solution,965 nm
same,ε,[1]; maximum absorption coefficient,1.41 10^5 cm^−1 M^−1
same,λfilm^max,[2]; film,1029 nm
same,λfilm^onset,[2]; film,1455 nm
same,Eg^opt,[2]; from absorption onset in film state,0.85 eV
same,LUMO,[3]; LUMO=HOMO+Eg,−4.32 eV
same,HOMO,[3]; cyclic voltammetry,−5.17 eV
same,Solubility,[4],◯
